The test system of one assay is mammals. The note with it: Barbato et al. 2005; cited from earlier work.
For a further assay, the system named is human forearm. The note with it: local intra-arterial infusion, Seddon et al. 2008; cited from earlier work.
Assay [1] relates to wild-type mice. Kind of assay: Exercise-activity assay in wild-type mice. In kind it is in vivo, mouse.
Assay [2] relates to wild-type mice. The note with it: Miki et al. 2002; cited from earlier work.
For assay [3], the system named is dystrophic or nNOS-null mice. Kind of assay: Exercise-activity assay in dystrophic or nNOS-null mice. In kind it is in vivo, mouse.
The next assay relates to wild-type and mdx mice. To be noted: Thomas et al. 1998; cited from earlier work.
The subject of the next assay is rats. To be noted: Wang et al. 2001; cited from earlier work.
The next assay has as its system mdx mice. Kind of assay: Exercise-activity assay (mild treadmill exercise, then open-field activity chamber) in mdx mice. It is filed as in vivo, mouse. To be noted: treatment before mild treadmill exercise.
Assay [4] concerns wild-type mice. To be noted: Kinugawa et al. 2005; cited from earlier work.
Assay [5] has as its system DGC models of muscular dystrophy. The experiment in a line: Serum creatine kinase following exercise. In kind it is in vivo, mouse. To be noted: mice subjected to eccentric contractions, 2 hours post-exercise. The protocol: In the assay, mice are initially placed in an activity cage for thirty minutes, and different activity measurements are measured and monitored during this time frame. The mice are then bled to measure serum creatine kinase (CK) levels and then the mice are injected with Evans Blue Dye. […]. Twenty-four hours later, the mice are then subject to a ten minute exercise protocol on a treadmill with a fifteen degree downhill incline at fifteen meters per minute. Following the exercise protocol, the mice are placed back in the activity cage, and post-exercise activity is measured for thirty minutes. […]
The pharmacological screen utilizes an exercise-activity assay to identify compounds that facilitate NO signaling in muscle having mislocalized nNOS. In the assay, mice are initially placed in an activity cage for thirty minutes to measure pre-exercise activity, and different activity measurements are measured and monitored during this time frame. […] Following the exercise protocol, the mice are placed back in the activity cage, and post-exercise activity is measured for thirty minutes. […]
Serum Creatine Kinase Assays. Blood for quantitative, kinetic determination of serum creatine kinase activity was collected either after the pre-exercise activity analysis or 2 hours post-exercise by mouse tail vein bleeds, using a Sarstedt microvette CB 300, from non-anesthetized restrained mice. […]

Assay [6] shares this test system. Kind of assay: Evans Blue Dye uptake in muscle following exercise. It is filed as in vivo, mouse. The note with it: mice subjected to eccentric contractions.
The target of the next assay is PDE5A (Homo sapiens, UniProt O76074). The experiment in a line: PDE5A inhibition. It is filed as biochemical. The note with it: at plasma concentration from 300 mg/kg/day.
The next assay concerns nNOS-null mice. The experiment in a line: Exercise/activity assay in nNOS-null mice. To be noted: administration prior to exercise. In kind it is in vivo, mouse.
Assay [7] has as its system DGC models of muscular dystrophy. The experiment in a line: Exercise/activity assay in DGC models of muscular dystrophy. The note with it: administration prior to exercise. It is filed as in vivo, mouse.

Entries after “also recorded” stand apart in the source; their conditions may differ.

Turning to `O=C(NCCO[N+](=O)[O-])c1cccnc1` [nicorandil], the blood pressure entry in the assay on mammals was “significantly reducing blood pressure in mammals”.

With `CNC(=N)NCCC[C@H](N)C(=O)O` [L-NMMA], the resting blood flow result in the assay on human forearm is “reduces resting blood flow”.

Turning to sarafotoxin 6c, the post-exercise activity entry with wild-type mice [1] is “caused post-exercise inactivity”.

Regarding `O=[N+]([O-])c1cccc2c(Br)n[nH]c12` [3-bromo-7-nitroindazole], in the assay on wild-type mice [1], the post-exercise activity result is “caused post-exercise inactivity”.

For `CC(N/C(=N\C#N)Nc1ccncc1)C(C)(C)C` (stereo not shown) [pinacidil], the mean arterial pressure result in the assay with wild-type mice [2] was “decreases mean arterial pressure”.

Regarding `COC(=O)[C@@H](N)CCCNC(=N)N[N+](=O)[O-]` [L-NAME], the post-exercise activity result is reported as “reduced the activity post-exercise even more” in assay [3] and “reduced post-exercise activity to levels similar to those in nNOS-null mice post-exercise” in the assay with wild-type mice [1]. Also, the “femoral blood flow velocity and vascular conductance” value in the assay on wild-type and mdx mice was “decreases femoral blood flow velocity and vascular conductance”. Further, in the assay with wild-type and mdx mice, the mean arterial pressure entry is listed as “increases mean arterial pressure”. In addition, in the assay with rats, the walking speed result is recorded as “severely reduces walking speed”.

`CC1(C)CC(O)CC(C)(C)N1[O]` [Tempol]: the “post-exercise activity / exaggerated fatigue response to mild exercise” value in the assay with mdx mice is “had no effect on the exaggerated fatigue response”.

With `CC(=O)OCC(=O)[C@@]12N=C(C)O[C@@H]1C[C@H]1[C@@H]3CCC4=CC(=O)C=C[C@]4(C)[C@H]3[C@@H](O)C[C@@]12C` [deflazacort], the “post-exercise activity / exaggerated fatigue response to mild exercise” value in the assay on mdx mice is “neither treatment resulted in improved post-exercise activity; also recorded: did not ameliorate inactivity post-exercise”.

`CN1CC(=O)N2[C@H](c3ccc4c(c3)OCO4)c3[nH]c4ccccc4c3C[C@@H]2C1=O` [tadalafil]: the “post-exercise activity / exaggerated fatigue response to mild exercise” value in the assay on mdx mice is recorded as “very effective at preventing the exercise-induced fatigue”.

Consider `CC(C)Cc1ccc(C(C)C(=O)O)cc1` (stereo not shown) [ibuprofen], for which the “post-exercise activity / exaggerated fatigue response to mild exercise” value in the assay on mdx mice is “neither treatment resulted in improved post-exercise activity”.

Take superoxide dismutase: the “post-exercise activity / exaggerated fatigue response to mild exercise” value in the assay on mdx mice is recorded as “neither method of SOD exposure had an effect on the exaggerated fatigue response”.

Consider `NC(=NCCC[C@H](N)C(=O)O)N[N+](=O)[O-]` [L-NNA], for which the “exercise-induced hyperemia and exercise capacity” value in the assay on wild-type mice [4] is “prevents adequate exercise-induced hyperemia and limits exercise capacity during exhaustive treadmill running”.

With `CCCc1nn(C)c2c(=O)nc(-c3cc(S(=O)(=O)N4CCN(C)CC4)ccc3OCC)[nH]c12` [sildenafil, 5-[2-ethoxy-5-(4-methylpiperazin-1-yl)sulfonylphenyl]-1-methyl-3-propyl-4H-pyrazolo[5,4-e]pyrimidin-7-one], in [5], the “serum CK following exercise” value is on record as “prevent an increase in serum CK”. Besides, the “Evans Blue Dye uptake in muscle following exercise” value in assay [6] was “prevent an increase in serum CK and Evans Blue Dye uptake in muscle following exercise”. Further, the enzyme activity inhibited entry on PDE5A is “more than 50%”. The post-exercise activity result in the assay on nNOS-null mice is “dramatically increased post-exercise activity”; in assay [7], “very effective at preventing the loss of activity following exercise; also recorded: dramatically increased post-exercise activity”. The “post-exercise activity / exaggerated fatigue response to mild exercise” value in the assay on mdx mice is reported as “very effective at preventing the exercise-induced fatigue”.
